Experimental data: US10155743B2, “Glutarimide derivatives, use thereof, pharmaceutical composition based thereon and methods for producing glutarimide derivatives” (OBSCHESTVO S OGRANICHENNOI OTVETSTVENNOSTIYU …, priority 2013, dated 2018)
Where two headings read alike, the source gives them in different places.

What was measured:
[1] = tested on: mucous membrane of nasal passages, formalin-induced acute rhinosinusitis; experiment: Acute rhinosinusitis rat model (induced by intranasal 7.5% formalin solution); assay type: in vivo, Wistar rats; settings: rats; for Macroscopic changes in the mucous membrane of nasal passages: Muculent or mucopurulent catarrh (number of animals) / Macroscopic changes in the mucous membrane of nasal passages: Without changes (number of animals): count out of n of the group; for The number of caliciform cells within 1 mm of the mucous membrane of the nasal septum: M ± m
Procedure: Morphological studies of histologic preparations were conducted with a Leica DMLS light-optical microscope (Leica Microsystems, Germany). Micro-morphometric assessment was performed by using an ocular micrometer on a Leica DMLB microscope.
Acute rhinosinusitis was induced by intranasal administration of 20 μl of 7.5% formalin solution (aqueous solution comprising 40% formaldehyde, 8% methyl alcohol, and 52% water) to each nasal passage of rats.
Administration of formalin to rat nasal passages leads to the dissemination of inflammation to adjacent tissues, resulting in a clinical pattern similar to the symptoms of rhinosinusitis in a human.
After an acclimatization period, the following groups were formed: • intact animals administered intragastrically a saline solution in an amount of 0.2 ml, the induction of acute rhinosinusitis was not performed; • a control group consisted of the animals administered intragastrically a saline solution in an amount of 0.2 ml for 7 days after induction of acute rhinosinusitis; • animals administered intramuscularly dexamethasone at a dose of 0.33 mg/kg for 7 days after induction of acute rhinosinusitis; and • animals administered the tested compounds at a dose of 27 mg/kg for 7 days after induction of acute rhinosinusitis.
Clinical observation of each animal was performed every day at least twice daily.
In the experiment with Wistar rats, the induction of acute rhinosinusitis by administration of a 7.5% formalin solution to nasal passages caused in the control group of animals pronounced pathological changes characterizing the development of an acute inflammation process in the nasal mucous. The caused pathology was characterized by congestion, hyperplasia, focal necrosis of the nasal meatus mucous membrane, an increased number of caliciform cells, pronounced infiltration by mononuclear cells and leucocytes, and mucus hyperproduction by submucosal glands.
The mucous and submucous membranes of both nasal passages (respiratory and olfactory regions) of the experimental animals were subjected to a morphological analysis to evaluate a specific activity of the compounds.
For microscopic examination, the sections were stained with hematoxylin and eosin. Detection of acid mukopolysaccharides, the production of which is increased in an inflammation, was performed by histochemical staining of the preparation with Alcian Blue (pH 2.5). The comparison and histological evaluation of changes were performed versus the group of intact rats.
After slaughter, the gross appearance of inflammation in the nasal passages was studied in each animal. Histological, hystochemical and morphological studies of rats were intended to evaluate the following characteristics of nasal passages: congestion of the mucous membrane; hyperplasia and necrosis of nasal epithelium, the number of caliciform cells within 1 mm of the mucous membrane of the nasal septum, and the character of inflammation.
In this study, the efficiency of the mucociliary system was evaluated by the number of caliciform cells and, as a consequence, microscopic changes in the mucous membrane of the nasal passages.

[2] = tested on: Coxsackie A2-virus (strain HCXV A2); experiment: Antiviral activity against Coxsackie virus in vivo (mortality of infected mice); parameters: species or system white mice; settings: for inhibition in vivo at 30 mg/kg / mortality at 30 mg/kg: Mus musculus, po; for inhibition in vivo at 30 mg/kg: 168 h, read-out: Protective index (%); for mortality at 30 mg/kg: 360 h, read-out: Total mortality rate, %; for Average expectancy life (days), Vs. control: difference to virus control
[3] = tested on: influenza virus strain A/California/07/09 (H1N1) pdm09; experiment: animal or person; assay type: in vivo, white outbred female mice; settings: unidentified influenza virus, H1N1, in Mus musculus, po, 336 h, read-out: Mortality rate, %
[4] = tested on: hRV strain (GKV reg. No. 2730); experiment: Antiviral activity against rhinovirus in mice (body weight, lung weight, infectious titer in lungs); assay type: in vivo; settings: Ribavirin 40 mg/kg
[5] = tested compounds 27 mg/kg for 7 days
[6] = mice, 10LD50 HCXV A2, 30 mg/kg orally once daily for 7 days
[7] = mice, 10LD50 HCXV A2 i.m., 30 mg/kg orally once daily for 7 days from 24 h after infection, 15 days monitoring
[8] = tested compounds 27 mg/kg for 7 days after induction
[9] = dexamethasone 0.33 mg/kg intramuscularly for 7 days

Row | Structure (SMILES) | Macroscopic changes in the mucous membrane of nasal passages: Muculent or mucopurulent catarrh (number of animals) [1, 5] | Macroscopic changes in the mucous membrane of nasal passages: Without changes (number of animals) [1, 5] | inhibition in vivo at 30 mg/kg [2, 6] [%] | mortality at 30 mg/kg [2, 7] [%] | Average expectancy life (days), Relative [2, 6] [days] | Average expectancy life (days), Vs. control [2, 6] | further results
1 | CC1CC(=O)N(CCc2cnc[nH]2)C(=O)C1 [Compound 2] | 3 | 5 | 40 | 42.9 | 22.4 | +9.5 days | –
2 | O=C1CCCC(=O)N1CCc1nc2ccccc2s1 [Compound 7, 1-[2-(1H-benzothiazol-2-yl)ethyl]piperidine-2-dione] | 13 | 5 | – | – | – | – | –
3 | O=C1CCCC(=O)N1CCc1ncc[nH]1 [Compound 8] | 3 | 3 | – | – | – | – | The number of caliciform cells within 1 mm of the mucous membrane of the nasal septum [1, 8]: 34.5 ± 0.8
4 | O=C1CCCC(=O)N1CCc1ccsc1 [Compound 12] | – | – | 45 | 40 | 24.9 | +14.2 days | mortality at 30 mg/kg [3]: 60%
5 | O=C1CCCC(=O)N1CCc1ccccn1 [Compound 13] | – | – | 36 | 46.7 | 19.0 | +8.3 days | –
6 | O=C1CCCC(=O)N1CCN1CCCCC1 [Compound 14] | – | – | – | – | 21.4 | +10.4 days | inhibition in vivo at 30 mg/kg [2]: 36%; mortality at 30 mg/kg [2]: 50%
7 | COC(=O)C(Cc1c[nH]c2ccccc12)N1C(=O)CCCC1=O (stereo not shown) [Compound 21] | 5 | 3 | – | – | – | – | –
8 | O=C1CCCC(=O)N1CCCn1ccnc1 [Compound 24] | – | – | – | – | – | – | mortality at 30 mg/kg [3]: 55%
9 | CCOC(=O)C(Cc1c[nH]c2ccccc12)N1C(=O)CCCC1=O (stereo not shown) [Compound 27] | 4 | 4 | – | – | – | – | –
10 | O=C1CC(O)CC(=O)N1CCc1cnc[nH]1 [Compound 28] | 4 | 4 | – | – | – | – | –
11 | O=C1CCC(O)C(=O)N1CCc1cnc[nH]1 (stereo not shown) [Compound 29] | – | – | 50 | 35.7 | 26.7 | +13.7 days | –
12 | CC(Cc1cnc[nH]1)N1C(=O)CCCC1=O (stereo not shown) [Compound 32] | 5 | 3 | 33 | 42.9 | 22.2 | +10.0 days | –
13 | O=C1CCCC(=O)N1CCCc1c[nH]cn1 [Compound 33] | 5 | 3 | – | – | – | – | –
14 | O=C(O)C(Cc1ccoc1)N1C(=O)CCCC1=O (stereo not shown) [Compound 44] | 4 | 4 | 55 | 28.6 | 32.3 | +20.1 days | –
15 | CC1CCC(=O)N(CCc2c[nH]cn2)C1=O (stereo not shown) [Compound 56] | 3 | 5 | – | – | – | – | –
16 | NC1CC(=O)N(CCc2c[nH]cn2)C(=O)C1 [Compound 65] | 4 | 4 | – | – | – | – | –
17 | NC1CCC(=O)N(CCc2cnc[nH]2)C1=O (stereo not shown) [Compound 67] | – | – | 50 | 35.7 | 27.0 | +16.2 days | –
18 | CC1CCC(=O)N(C(Cc2cnc[nH]2)C(=O)O)C1=O (stereo not shown) [Compound 70] | 4 | 4 | – | – | – | – | –
19 | CC1CC(=O)N(C(Cc2cnc[nH]2)C(=O)O)C(=O)C1 (stereo not shown) [Compound 71] | – | – | 44 | 35.7 | 28.6 | +16.4 days | –
20 | NC1CCC(=O)N(C(Cc2c[nH]cn2)C(=O)O)C1=O (stereo not shown) [Compound 75] | 5 | 3 | 50 | 35.7 | 27.3 | +14.3 days | –
21 | O=C(O)C(Cc1cnc[nH]1)N1C(=O)CCC(O)C1=O (stereo not shown) [Compound 76] | 6 | 2 | – | – | – | – | –
22 | O=C(O)C(Cc1ccccn1)N1C(=O)CCCC1=O (stereo not shown) [Compound 83] | – | – | – | – | – | – | mortality at 30 mg/kg [3]: 45%
23 | O=C1CCCC(=O)N1CCC1CNCCO1 (stereo not shown) [Compound 89] | – | – | 27 | 53.3 | 17.7 | +7.0 days | –
24 | O=C1CCCC(=O)N1CCC1COCCN1 (stereo not shown) [Compound 90] | – | – | 50 | 35.7 | 25.9 | +15.1 days | –
25 | O=C1CCCC(=O)N1CCc1nc2ccccc2[nH]1 [Compound 124] | 8 | 4 | – | – | – | – | The number of caliciform cells within 1 mm of the mucous membrane of the nasal septum [1, 8]: 37.6 ± 1.4
26 | C[C@@H]1C[C@H]2[C@@H]3CCC4=CC(=O)C=C[C@]4(C)[C@@]3(F)[C@@H](O)C[C@]2(C)[C@@]1(O)C(=O)CO [Dexamethasone, dexamethasone, reference compound] | – | – | – | – | – | – | The number of caliciform cells within 1 mm of the mucous membrane of the nasal septum ([1]; dexamethasone 0.33 mg/kg intramuscularly for 7 days after induction): 34.8 ± 2.1; Macroscopic changes in the mucous membrane of nasal passages: Muculent or mucopurulent catarrh (number of animals) [1, 9]: 3; Macroscopic changes in the mucous membrane of nasal passages: Without changes (number of animals) [1, 9]: 3
27 | NC(=O)c1ncn([C@@H]2O[C@H](CO)[C@@H](O)[C@H]2O)n1 [Ribavirin, reference compound] | – | – | – | – | – | – | Suppression of the reproduction of the virus in mouse lungs, Δ lg, Day 2 after infection [4]: 0.88 ± 0.5 Δ lg; Suppression of the reproduction of the virus in mouse lungs, Δ lg, Day 3 after infection [4]: 2.18 ± 0.26 Δ lg; Suppression of the reproduction of the virus in mouse lungs, Δ lg, Day 4 after infection [4]: 2 ± 0.16 Δ lg; Infectious titer of the virus in lungs, lg TCID50, Day 2 after infection ([4]; Hela cell culture): 3.13 ± 0.5 lg TCID50; Infectious titer of the virus in lungs, lg TCID50, Day 3 after infection ([4]; Hela cell culture): 0.33 ± 0.26 lg TCID50; Infectious titer of the virus in lungs, lg TCID50, Day 4 after infection ([4]; Hela cell culture): 0.2 ± 0.16 lg TCID50; Body weight of the mice after infection with hRV, day 0 ([4]; day 0): 7.66 ± 0.89; Body weight of the mice after infection with hRV, day 1 ([4]; day 1 after infection): 8.81 ± 5.94; Body weight of the mice after infection with hRV, day 2 ([4]; day 2 after infection): 13.87 ± 5.11; Lung weight of the mice after infection with hRV, day 2 ([4]; day 2 after infection): 152.6 ± 4.55; Body weight of the mice after infection with hRV, day 3 ([4]; day 3 after infection): 13.11 ± 1.37; Lung weight of the mice after infection with hRV, day 3 ([4]; day 3 after infection): 130.1 ± 5.4; Body weight of the mice after infection with hRV, day 4 ([4]; day 4 after infection): 13.37 ± 1.22; Lung weight of the mice after infection with hRV, day 4 ([4]; day 4 after infection): 120.5 ± 3.37
